Reference: paper PMC11452728, “Pharmacokinetics of pulmonary indacaterol in rat lung using molecular imprinting solid-phase extraction coupled with RP-UPLC” (Scientific Reports, 2024)

Key:
[1] = Pharmacokinetic study of indacaterol in rat lung tissues (MISPE, UPLC); type: in vivo, male Wistar rats; conditions: rat lungs
Description: AUC was calculated using the trapezoidal rule where, AUC 0−t was determined by summing the areas of consecutive trapezoids formed by plotting drug concentration versus time[36]. The elimination rate constant was estimated from the least-squares regression slope of the terminal lung concentrations by multiplying the negative slope by 2.303[36]. The AUC 0−inf was calculated using Eq. (9)[36]:9 [drawing 9]
where, Ct is the last lung concentration measured. The t1/2 was calculated using Eq. (10)[36]:10 [drawing 10]
The rats were divided into eight sampling time points (n = 3/sampling time point) representing different time intervals (0.0, 5.0, 15.0, 30.0, 60.0, 180.0, 360.0 and 1440.0 min) for the pharmacokinetic study. Except for the zero-time sampling point; where rats were not administered the drug and were used for bioanalytical validation; each rat in each sampling time point was administered one inhalation capsule containing 150 µg of indacaterol using a powder administration device for animals (Aptar Pharma, Le Prieure, Le Neubourg, France). The powder administration device was designed to deliver a uniform dose of dry powder inhalers into the lungs of rats.
At each time interval, three rats were subjected to euthanasia in the euthanasia chamber using carbon dioxide gas inhalation, after being unconscious, the rats were subjected to decapitation and their lungs were separated and cut into small slices to facilitate homogenization. Then, the lung tissues were homogenized for 10 min using a homogenizer placed in an ice jacket with 2.0 mL of PBS. The homogenized samples were then centrifuged, and the supernatant was separated and loaded into MISPE cartridge following the optimized MISPE steps. The drug was eluted in 1.0 mL of the eluent. Then, 10.0 µL of salbutamol stock solution was added to the eluent as an IS, and the eluent was then injected into UPLC. The same procedure was repeated at each time interval. Dead animal bodies were kept in biohazard bags in -20^ºC freezer and finally incinerated by specialized waste disposal companies.

[2] = Stability of lung samples spiked with indacaterol standard; type: physicochemical, rat; conditions: for Short-term stability, % deviation from fresh sample: room temperature 2 h, lung sample; for Long-term stability, % deviation from fresh sample: -80 °C 3 weeks; for Auto-sampler stability, % deviation from fresh sample: autosampler 30°C 6 h; for Freeze and thaw stability, % deviation from fresh sample: three cycles each of 24 h
Description: Regarding the preparation of lung tissue samples, three non-medicated male rats were sacrificed by decapitation and their whole lungs were harvested. The lungs were cut into small slices and mixed with 2.0 mL of PBS, homogenized in an ice jacket for 10.0 min. Subsequently, 1800.0 µL of the homogenate was collected and spiked with 200.0 µL of indacaterol solution with concentrations of 1.0, 3.0, 350.0, and 700.0 µg mL^− 1 separately, to achieve the concentration of the LLOQ and QCs per 1.0 mL of the lung homogenate. Samples were centrifuged at 3000 rpm for 10 min and 1.0 mL of the supernatant was passed through the MISPE cartridge according to the extraction protocol outlined in section "Preparation and optimization of MISPE". Finally, 10.0 µL of salbutamol stock standard solution was added to the eluent as IS, and the samples were injected into the UPLC for analysis.
Samples stabilities were assessed by injecting LLOQ and QCs six times and compared to freshly prepared samples using the following stability conditions:
Samples were left at room temperature for a time exceeding that required for sample preparation (2 h).
Samples were left in autosampler (30°C) for 6 h; expected time of samples storage in autosampler before injection. Then, samples were injected.
Samples were subjected to three cycles of freeze and thaw each of 24 h and the samples were kept under the same conditions as during the analysis.
Samples were stored at -80^ºC over a period exceeding that required for the whole experiment (3 weeks).
The results of all stability conditions were evaluated using Eq. (2). The deviation should not exceed ± 15.0%.2 [drawing 2]

[3] = Solubility of indacaterol in solvents (porogen and washing solvent choice); type: physicochemical
[4] = cited from earlier work
[5] = design: method as in PMID 24295085; conditions: human lung and pulmonary microsomes; cited from earlier work
[6] = design: method as in PMID 19819331; conditions: cited from earlier work
[7] = male, Wistar, lung, inhaled or intranasal, 150 ug, single inhaled capsule 150 µg, mean ± SD

SMILES: CCc1cc2c(cc1CC)CC(NC[C@H](O)c1ccc(O)c3[nH]c(=O)ccc13)C2 [indacaterol, 5-[(1R)-2-(5,6-diethyl-indan-2-ylamino)-1-hydroxy-ethyl]−8-hydroxy-1H-quinolin-2-one]
- Cmax ([1]; male, Wistar, lung, inhaled or intranasal, 150 ug, single inhaled Onbrez Breezhaler capsule 150 µg indacaterol, n = 3 per sampling time point, mean ± SD): 51 ± 2.81 µg/mL
- AUC(0-inf) [1, 7]: 542 ± 5.25 µg·h/mL
- Tmax [1, 7]: 4.98 ± 0.06 min
- half-life ([1]; male, Wistar, lung, inhaled or intranasal, 150 ug, single inhaled capsule 150 µg, mean ± SD, read-out: t1/2 (0–24) (converted)): 48.51 ± 0.012 h
- AUC(0-t) ([1]; male, Wistar, lung, inhaled or intranasal, 150 ug, zero to 24 h, single inhaled capsule 150 µg, mean ± SD): 175.9 ± 1.05 µg·h/mL
- onset of lung deposition ([1]; single inhaled capsule 150 µg): 5 min
- Elimination rate constant ([1]; single inhaled capsule 150 µg, mean ± SD): 0.014 ± 0.00012 h^− 1
- Short-term stability, % deviation from fresh sample ([2]; LLOQ 0.10 µg mL^-1): -11.30±3.50%
- Long-term stability, % deviation from fresh sample ([2]; LLOQ): -13.10±5.89%
- Auto-sampler stability, % deviation from fresh sample ([2]; LLOQ): -12.05±4.20%
- Freeze and thaw stability, % deviation from fresh sample ([2]; LLOQ): -13.26±4.85%
- Short-term stability, % deviation from fresh sample ([2]; QCH 70.0 µg mL^-1): -2.89±1.94%
- Long-term stability, % deviation from fresh sample ([2]; QCH): -3.28±1.32%
- Auto-sampler stability, % deviation from fresh sample ([2]; QCH): -1.71±2.67%
- Freeze and thaw stability, % deviation from fresh sample ([2]; QCH): -2.20±2.25%
- Short-term stability, % deviation from fresh sample ([2]; QCL 0.30 µg mL^-1): -5.74±2.25%
- Long-term stability, % deviation from fresh sample ([2]; QCL): -4.40±3.88%
- Auto-sampler stability, % deviation from fresh sample ([2]; QCL): -5.98±2.58%
- Freeze and thaw stability, % deviation from fresh sample ([2]; QCL): -4.80±3.26%
- Short-term stability, % deviation from fresh sample ([2]; QCM 35.0 µg mL^-1): -4.14±2.61%
- Long-term stability, % deviation from fresh sample ([2]; QCM): -3.90±2.22%
- Auto-sampler stability, % deviation from fresh sample ([2]; QCM): -4.02±2.34%
- Freeze and thaw stability, % deviation from fresh sample ([2]; QCM): -4.30±2.81%
- solubility in acetonitrile and chloroform ([3]; tested as porogen): insolubility
- solubility in methanol ([3]; washing solvent discussion): high
- time to enter the bloodstream after inhalation ([4]; after being inhaled): ≤ 5 min
- time to highest blood concentration ([4]; after entering the bloodstream, at very low doses): approximately 15 min
- absolute bioavailability ([4]; inhaled): 45%
- fraction of systemically available indacaterol due to pulmonary absorption (Flung) ([4]; inhaled): 74%
- time to steady state ([4]; once-daily inhalation): 12 days
- metabolism by UGT1A1 and CYP3A4 in the lung [5]: did not detect any apparent metabolism
- lipophilicity [6]: high
- binding affinity for raft micro-domains compared to other β2 agonists ([6]; plasma membrane of airway smooth muscle): two-fold higher
